Assay results: PMC10700596 (Nature Communications, 2023)
Read-outs that look alike come from different tables or passages of the source.

Experiments:
[1] = molecular target: T1, EP4R (Homo sapiens, UniProt P35408); experiment: PRESTO-Tango β-arrestin2 recruitment assay; format: cell-based
T1 construct: Tango fusion cassette (only 'tango' is printed); expressed in transfected cells; host or cells: HTLA cells (tTA-dependent luciferase reporter, β-arrestin2-TEV fusion)

[2] = molecular target: PIM2 (Homo sapiens, UniProt Q9P1W9); experiment: biochemical; format: binding; conditions: 10000 nM; read-out: Percent Control
Description: (§1) Source data are provided as a Source Data file.

[3] = molecular target: p38-beta (Homo sapiens, UniProt Q15759); experiment: biochemical; format: binding; conditions: 10000 nM; read-out: Percent Control
Description: as §1

[4] = molecular target: MARK3 (Homo sapiens, UniProt P27448); experiment: biochemical; format: binding; conditions: 10000 nM; read-out: Percent Control
Description: as §1

[5] = molecular target: PLK4 (Homo sapiens, UniProt O00444); experiment: biochemical; format: binding; conditions: 10000 nM; read-out: Percent Control
Description: as §1

[6] = molecular target: VEGFR2 (Homo sapiens, UniProt P35968); experiment: biochemical; format: binding; conditions: 10000 nM; read-out: Percent Control
Description: as §1

[7] = molecular target: PAK4 (Homo sapiens, UniProt O96013); experiment: biochemical; format: binding; conditions: 10000 nM; read-out: Percent Control
Description: as §1

[8] = molecular target: PAK2 (Homo sapiens, UniProt Q13177); experiment: biochemical; format: binding; conditions: 10000 nM; read-out: Percent Control
Description: as §1

[9] = molecular target: KIT(V559D,T670I) (Homo sapiens, UniProt P10721, T670I/V559D); experiment: biochemical; format: binding; conditions: 10000 nM; read-out: Percent Control
Description: as §1

[10] = molecular target: MEK1 (Homo sapiens, UniProt Q02750); experiment: biochemical; format: binding; conditions: 10000 nM; read-out: Percent Control
Description: as §1

[11] = molecular target: PDGFRA (Homo sapiens, UniProt P16234); experiment: biochemical; format: binding; conditions: 10000 nM; read-out: Percent Control
Description: as §1

[12] = molecular target: MAP3K4 (Homo sapiens, UniProt Q9Y6R4); experiment: biochemical; format: binding; conditions: 10000 nM; read-out: Percent Control
Description: as §1

[13] = molecular target: KIT (Homo sapiens, UniProt P10721); experiment: biochemical; format: binding; conditions: 10000 nM; read-out: Percent Control
Description: as §1

[14] = molecular target: PDGFRB (Homo sapiens, UniProt P09619); experiment: biochemical; format: binding; conditions: 10000 nM; read-out: Percent Control
Description: as §1

[15] = molecular target: MKNK2 (Homo sapiens, UniProt Q9HBH9); experiment: biochemical; format: binding; conditions: 10000 nM; read-out: Percent Control
Description: as §1

[16] = molecular target: MKNK1 (Homo sapiens, UniProt Q9BUB5); experiment: biochemical; format: binding; conditions: 10000 nM; read-out: Percent Control
Description: as §1

[17] = molecular target: RIOK2 (Homo sapiens, UniProt Q9BVS4); experiment: biochemical; format: binding; conditions: 10000 nM; read-out: Percent Control
Description: as §1

[18] = molecular target: PKAC-alpha (Homo sapiens, UniProt P17612); experiment: biochemical; format: binding; conditions: 10000 nM; read-out: Percent Control
Description: as §1

[19] = molecular target: RET (Homo sapiens, UniProt P07949); experiment: biochemical; format: binding; conditions: 10000 nM; read-out: Percent Control
Description: as §1

[20] = molecular target: PCTK1 (Homo sapiens, UniProt Q00536); experiment: biochemical; format: binding; conditions: 10000 nM; read-out: Percent Control
Description: as §1

[21] = molecular target: MLK1 (Homo sapiens, UniProt P80192); experiment: biochemical; format: binding; conditions: 10000 nM; read-out: Percent Control
Description: as §1

[22] = molecular target: PAK1 (Homo sapiens, UniProt Q13153); experiment: biochemical; format: binding; conditions: 10000 nM; read-out: Percent Control
Description: as §1

[23] = molecular target: MAPKAPK2 (Homo sapiens, UniProt P49137); experiment: biochemical; format: binding; conditions: 10000 nM; read-out: Percent Control
Description: as §1

[24] = molecular target: IGF1R (Homo sapiens, UniProt P08069); experiment: biochemical; format: binding; conditions: 10000 nM; read-out: Percent Control
Description: as §1

[25] = molecular target: RAF1 (Homo sapiens, UniProt P04049); experiment: biochemical; format: binding; conditions: 10000 nM; read-out: Percent Control
Description: as §1

[26] = molecular target: PIK3C2B (Homo sapiens, UniProt O00750); experiment: biochemical; format: binding; conditions: 10000 nM; read-out: Percent Control
Description: as §1

[27] = in vivo; format: in vivo, mice; conditions: mice
[28] = male, CD-1, mouse, CSF, ip, 10 mg/kg, IP 10 mg/kg, CSF, mean, read-out: CSF concentrations of cmpd 7827_0016 in mice following IP (10 mg/kg) administration, C
[29] = male, CD-1, mouse, brain, ip, 10 mg/kg, IP 10 mg/kg, brain, individual animals, read-out: Brain concentration, Final
[30] = male, CD-1, mouse, brain, ip, 10 mg/kg, IP 10 mg/kg, brain, mean, read-out: Brain concentrations of cmpd 7827_0016 in mice following IP (10 mg/kg) administration, C

T1 sequence (P35408 whole entry, the tested form may be a part): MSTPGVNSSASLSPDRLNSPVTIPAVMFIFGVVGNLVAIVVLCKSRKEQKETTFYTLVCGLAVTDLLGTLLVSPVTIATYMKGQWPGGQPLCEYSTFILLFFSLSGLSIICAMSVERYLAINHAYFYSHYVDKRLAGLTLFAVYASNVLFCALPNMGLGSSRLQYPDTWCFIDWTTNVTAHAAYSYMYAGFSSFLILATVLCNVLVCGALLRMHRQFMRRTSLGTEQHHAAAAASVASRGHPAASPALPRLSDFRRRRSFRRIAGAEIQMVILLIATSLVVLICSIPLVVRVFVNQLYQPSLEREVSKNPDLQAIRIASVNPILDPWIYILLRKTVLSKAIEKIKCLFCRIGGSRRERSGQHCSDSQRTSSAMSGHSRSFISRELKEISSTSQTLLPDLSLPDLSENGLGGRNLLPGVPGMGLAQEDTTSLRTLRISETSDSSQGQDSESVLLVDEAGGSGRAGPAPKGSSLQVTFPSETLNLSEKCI
MLK1, sequence (P80192 whole entry): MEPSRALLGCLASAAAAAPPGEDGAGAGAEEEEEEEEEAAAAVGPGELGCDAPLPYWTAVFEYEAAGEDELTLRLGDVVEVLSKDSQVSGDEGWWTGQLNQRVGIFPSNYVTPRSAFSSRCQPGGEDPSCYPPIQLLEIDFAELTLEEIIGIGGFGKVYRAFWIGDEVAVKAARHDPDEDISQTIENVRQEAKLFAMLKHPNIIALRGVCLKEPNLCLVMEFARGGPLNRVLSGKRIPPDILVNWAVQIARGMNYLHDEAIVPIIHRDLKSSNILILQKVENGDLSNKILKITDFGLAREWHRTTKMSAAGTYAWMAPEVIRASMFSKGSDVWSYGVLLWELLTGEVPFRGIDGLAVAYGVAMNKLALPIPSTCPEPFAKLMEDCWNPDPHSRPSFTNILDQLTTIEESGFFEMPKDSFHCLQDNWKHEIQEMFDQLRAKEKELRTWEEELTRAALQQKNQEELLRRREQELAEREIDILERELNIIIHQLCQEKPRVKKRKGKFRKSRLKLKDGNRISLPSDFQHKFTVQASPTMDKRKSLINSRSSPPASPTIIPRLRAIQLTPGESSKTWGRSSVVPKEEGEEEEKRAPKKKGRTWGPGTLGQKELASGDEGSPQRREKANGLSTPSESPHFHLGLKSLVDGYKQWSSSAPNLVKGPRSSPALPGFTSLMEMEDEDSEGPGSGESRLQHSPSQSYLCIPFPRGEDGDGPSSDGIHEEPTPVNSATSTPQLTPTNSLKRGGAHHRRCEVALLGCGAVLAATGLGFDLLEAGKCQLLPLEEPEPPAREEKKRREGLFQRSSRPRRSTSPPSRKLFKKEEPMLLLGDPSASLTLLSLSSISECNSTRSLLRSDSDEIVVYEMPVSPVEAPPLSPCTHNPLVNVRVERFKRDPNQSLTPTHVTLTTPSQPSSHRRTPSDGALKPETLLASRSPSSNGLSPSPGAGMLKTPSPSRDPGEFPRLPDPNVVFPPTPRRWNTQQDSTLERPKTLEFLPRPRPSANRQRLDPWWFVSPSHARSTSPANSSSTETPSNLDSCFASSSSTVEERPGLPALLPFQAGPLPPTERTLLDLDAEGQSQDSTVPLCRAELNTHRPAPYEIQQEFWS
RAF1, sequence (P04049 whole entry): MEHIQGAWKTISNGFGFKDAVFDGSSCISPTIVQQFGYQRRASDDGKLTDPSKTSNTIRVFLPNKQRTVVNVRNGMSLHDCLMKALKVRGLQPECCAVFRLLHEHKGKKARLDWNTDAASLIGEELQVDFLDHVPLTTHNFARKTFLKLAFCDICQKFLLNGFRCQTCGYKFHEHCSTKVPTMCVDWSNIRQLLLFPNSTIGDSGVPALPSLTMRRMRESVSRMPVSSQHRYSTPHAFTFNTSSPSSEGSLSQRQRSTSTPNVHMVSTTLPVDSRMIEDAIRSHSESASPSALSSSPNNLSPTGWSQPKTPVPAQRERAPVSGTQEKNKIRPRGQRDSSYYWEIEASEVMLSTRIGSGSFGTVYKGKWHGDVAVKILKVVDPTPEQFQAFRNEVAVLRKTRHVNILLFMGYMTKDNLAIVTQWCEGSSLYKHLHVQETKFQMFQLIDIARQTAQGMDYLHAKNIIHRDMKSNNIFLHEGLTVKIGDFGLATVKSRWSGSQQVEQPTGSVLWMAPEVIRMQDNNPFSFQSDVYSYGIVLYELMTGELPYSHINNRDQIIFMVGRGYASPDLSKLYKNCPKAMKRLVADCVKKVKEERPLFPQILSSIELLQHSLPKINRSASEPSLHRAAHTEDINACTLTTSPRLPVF
MAPKAPK2, sequence (P49137 whole entry): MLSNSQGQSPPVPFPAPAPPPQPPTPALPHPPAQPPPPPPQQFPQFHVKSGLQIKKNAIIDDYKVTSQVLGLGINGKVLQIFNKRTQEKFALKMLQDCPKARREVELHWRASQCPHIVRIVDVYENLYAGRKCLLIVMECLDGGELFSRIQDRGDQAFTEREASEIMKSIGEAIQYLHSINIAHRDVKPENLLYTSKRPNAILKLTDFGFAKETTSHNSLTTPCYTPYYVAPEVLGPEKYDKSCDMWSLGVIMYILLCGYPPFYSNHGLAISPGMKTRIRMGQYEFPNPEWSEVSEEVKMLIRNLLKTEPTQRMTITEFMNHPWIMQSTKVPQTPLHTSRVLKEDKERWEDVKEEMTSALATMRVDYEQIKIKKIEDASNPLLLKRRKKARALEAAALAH
MEK1, sequence (Q02750 whole entry): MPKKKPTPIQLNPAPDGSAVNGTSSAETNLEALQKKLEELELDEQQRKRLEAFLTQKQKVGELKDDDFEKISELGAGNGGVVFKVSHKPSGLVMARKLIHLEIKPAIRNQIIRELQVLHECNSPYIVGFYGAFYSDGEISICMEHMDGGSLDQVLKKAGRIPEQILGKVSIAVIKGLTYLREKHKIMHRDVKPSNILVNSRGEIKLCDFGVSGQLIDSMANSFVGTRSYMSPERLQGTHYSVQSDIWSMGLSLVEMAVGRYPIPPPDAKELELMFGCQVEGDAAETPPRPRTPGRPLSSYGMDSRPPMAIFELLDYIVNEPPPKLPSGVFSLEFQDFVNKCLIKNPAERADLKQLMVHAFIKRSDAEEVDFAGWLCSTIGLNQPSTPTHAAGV
PLK4, sequence (O00444 whole entry): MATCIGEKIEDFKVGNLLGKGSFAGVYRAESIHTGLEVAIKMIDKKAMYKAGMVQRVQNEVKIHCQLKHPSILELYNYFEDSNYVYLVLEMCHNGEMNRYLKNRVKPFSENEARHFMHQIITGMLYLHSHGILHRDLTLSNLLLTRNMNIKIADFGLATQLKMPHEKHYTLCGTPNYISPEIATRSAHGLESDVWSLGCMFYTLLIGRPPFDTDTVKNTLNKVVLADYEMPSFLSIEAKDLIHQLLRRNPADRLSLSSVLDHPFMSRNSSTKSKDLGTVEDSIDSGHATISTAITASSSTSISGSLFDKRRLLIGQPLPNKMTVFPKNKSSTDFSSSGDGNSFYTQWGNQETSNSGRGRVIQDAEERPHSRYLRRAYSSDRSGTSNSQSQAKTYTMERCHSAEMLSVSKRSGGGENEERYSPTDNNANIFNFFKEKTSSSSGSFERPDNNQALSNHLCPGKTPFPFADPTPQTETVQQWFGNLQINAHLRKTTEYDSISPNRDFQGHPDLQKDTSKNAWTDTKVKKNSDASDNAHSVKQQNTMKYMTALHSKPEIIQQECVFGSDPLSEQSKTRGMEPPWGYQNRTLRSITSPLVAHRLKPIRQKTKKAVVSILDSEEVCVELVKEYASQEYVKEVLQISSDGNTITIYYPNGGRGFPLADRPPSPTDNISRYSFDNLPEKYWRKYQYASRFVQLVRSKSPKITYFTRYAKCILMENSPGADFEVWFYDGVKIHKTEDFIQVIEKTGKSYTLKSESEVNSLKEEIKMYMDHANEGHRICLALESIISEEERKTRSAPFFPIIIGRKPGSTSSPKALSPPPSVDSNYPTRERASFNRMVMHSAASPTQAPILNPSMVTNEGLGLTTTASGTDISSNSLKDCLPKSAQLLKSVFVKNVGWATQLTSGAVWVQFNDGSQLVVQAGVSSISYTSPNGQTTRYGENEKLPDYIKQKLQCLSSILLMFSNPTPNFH
KIT, sequence (P10721 26-976): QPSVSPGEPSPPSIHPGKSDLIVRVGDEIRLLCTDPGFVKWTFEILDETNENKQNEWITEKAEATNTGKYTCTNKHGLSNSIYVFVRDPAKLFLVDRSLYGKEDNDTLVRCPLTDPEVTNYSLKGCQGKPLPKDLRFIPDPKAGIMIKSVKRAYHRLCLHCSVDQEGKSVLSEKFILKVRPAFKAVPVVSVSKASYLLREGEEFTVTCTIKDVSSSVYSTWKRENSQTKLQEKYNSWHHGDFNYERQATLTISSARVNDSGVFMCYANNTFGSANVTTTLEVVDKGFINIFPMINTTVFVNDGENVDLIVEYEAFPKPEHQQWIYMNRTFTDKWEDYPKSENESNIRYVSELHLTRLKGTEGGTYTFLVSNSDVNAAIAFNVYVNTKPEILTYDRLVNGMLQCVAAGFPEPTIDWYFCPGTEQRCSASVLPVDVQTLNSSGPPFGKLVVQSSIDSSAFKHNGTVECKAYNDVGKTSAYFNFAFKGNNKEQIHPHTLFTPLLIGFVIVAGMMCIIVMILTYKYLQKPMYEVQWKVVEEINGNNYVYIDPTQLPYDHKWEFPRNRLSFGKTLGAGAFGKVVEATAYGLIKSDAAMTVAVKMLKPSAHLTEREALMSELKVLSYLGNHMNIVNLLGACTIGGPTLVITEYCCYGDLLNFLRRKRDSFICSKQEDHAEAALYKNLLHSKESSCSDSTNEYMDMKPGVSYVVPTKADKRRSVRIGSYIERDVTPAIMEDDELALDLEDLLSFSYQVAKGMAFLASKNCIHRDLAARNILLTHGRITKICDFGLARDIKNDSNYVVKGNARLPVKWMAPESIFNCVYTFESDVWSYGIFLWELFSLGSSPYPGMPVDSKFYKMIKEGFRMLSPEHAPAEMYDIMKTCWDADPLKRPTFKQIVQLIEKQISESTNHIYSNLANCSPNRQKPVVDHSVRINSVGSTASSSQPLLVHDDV
KIT(V559D,T670I), sequence (P10721 26-976 V559D/T670I): as the sequence (P10721 26-976) above, with V534D, T645I counted along it

With O=C(O)C1CCC2(CC1)CC(Nc1ncnc3[nH]c4c(F)cccc4c13)C2 (stereo not drawn) [Compound 74, OC(=O)C1CCC2(CC(C2)NC=3N=CN=C4NC=5C(F)=CC=CC5C34)CC1] the IC50 ([1]; PRESTO-Tango IC50 (nM)) was 302 nM, the Ki ([1]; calculated using the Cheng Prusoff equation, read-out: PRESTO-Tango Ki*) was 60.4 nM and the remaining activity at 10 µM [2] was 100%. It also gave a remaining activity at 10 µM [3] of 79%, a remaining activity at 10 µM [4] of 81% and a remaining activity at 10 µM [5] of 34%. It also gave a remaining activity at 10 µM [6] of 31%, a remaining activity at 10 µM [7] of 65% and a remaining activity at 10 µM [8] of 66%. For the same compound, the remaining activity at 10 µM [9] was 56%, the remaining activity at 10 µM [10] was 24% and the remaining activity at 10 µM [11] was 35%. For the same compound, the remaining activity at 10 µM [12] was 92%, the remaining activity at 10 µM [13] was 75% and the remaining activity at 10 µM [14] was 60%. The remaining activity at 10 µM [15] was 62%, the remaining activity at 10 µM [16] was 72% and the remaining activity at 10 µM [17] was 54%. It also gave a remaining activity at 10 µM [18] of 99%, a remaining activity at 10 µM [19] of 5.9% and a remaining activity at 10 µM [20] of 94%. The remaining activity at 10 µM [21] was 45%, the remaining activity at 10 µM [22] was 76% and the remaining activity at 10 µM [23] was 98%. It also gave a remaining activity at 10 µM [24] of 100%, a remaining activity at 10 µM [25] of 98% and a remaining activity at 10 µM [26] of 74%. For the same compound, the “brain and cerebral spinal fluid exposure” value ([27]; 10 mg/kg i.p.) was “only marginal brain and cerebral spinal fluid exposure”, the concentration at 5 min [27, 28] was 15.7 ng/mL and the concentration at 15 min [27, 28] was 70.5 ng/mL. The concentration at 30 min [27, 28] was 80.6 ng/mL, the concentration at 60 min [27, 28] was 158 ng/mL and the concentration at 120 min [27, 28] was 119 ng/mL. It also gave a concentration at 240 min [27, 28] of 26 ng/mL, a concentration at 360 min ([27]; male, CD-1, mouse, CSF, ip, 10 mg/kg, IP 10 mg/kg, CSF, individual animals, read-out: CSF concentration, Final) of 98.6 ng/mL and a concentration at 360 min [27, 28] of 80.9 ng/mL. It also gave a concentration at 480 min ([27]; male, CD-1, mouse, CSF, ip, 10 mg/kg, IP 10 mg/kg, CSF, 480 min, mean, read-out: CSF concentrations of cmpd 7827_0016 in mice following IP (10 mg/kg) administration, C) of 7.31 ng/mL, a concentration at 1440 min ([27]; male, CD-1, mouse, CSF, ip, 10 mg/kg, IP 10 mg/kg, CSF, 1440 min, mean, read-out: CSF concentrations of cmpd 7827_0016 in mice following IP (10 mg/kg) administration, C) of 10.8 ng/mL and a concentration at 5 min [27, 29] of 58.9 ng/g. For the same compound, the concentration at 5 min [27, 30] was 61.1 ng/g, the concentration at 15 min [27, 29] was 152 ng/g and the concentration at 15 min [27, 30] was 135 ng/g. The concentration at 30 min [27, 29] was 150 ng/g, the concentration at 30 min [27, 30] was 203 ng/g and the concentration at 60 min [27, 29] was 182 ng/g. For the same compound, the concentration at 60 min [27, 30] was 160 ng/g, the concentration at 120 min [27, 30] was 82.1 ng/g and the concentration at 240 min [27, 29] was 21.6 ng/g.
